Measurements: ChEMBL document CHEMBL3507680, “University of Dundee, Gates Library screen for HepG2 cell viability”

Test: Human HepG2 cell viability assay in 384 well format
Assay type: toxicity, cell-based
Design: dose 125 nL, time 70.5 hour; concentration not given beside the values
Conditions: HepG2 cells, read-out: Inhibition

Row | SMILES | cytotoxicity at 70.5 h [%]
1 | c1cncc(COCC2CC[C@H]3[C@H](CCN3CC3CCOCC3)O2)c1 (stereo not given in full) | 24.3
2 | CCCNc1ncc(-c2cc(C3CC3)nc(N)c2C#N)cn1 | -12.1
3 | CS(=O)(=O)N1Cc2nccn2CC(Cn2ncccc2=O)C1 (stereo not given) | 3.97
4 | Cc1cnn(-c2ccc(S(=O)(=O)N(C)CC(F)F)cc2F)c1 | -8.45
5 | CNC(=O)[C@@]12CCC3(CCN(S(=O)(=O)C4CC4)CC3)[C@@H]1CN(C(C)=O)C2 | 20.2
6 | CC1CCC(O)(Cn2ncnc2-c2cccc(C#N)c2)CC1 (stereo not given) | -5.94
7 | c1cnc(N2CCC(OCC3CCCCO3)CC2)nc1 (stereo not given) | -2.08
8 | Cc1ccc(NC2CCN(C(=O)CCC3CCCO3)CC2)nn1 (stereo not given) | -3.33
9 | CCN1CCc2cc(C(=O)N(C)C)c(NCC3CC3)nc2CC1 | 2.86
10 | Cn1cc(NC(=O)c2ccccn2)cc(Cl)c1=O | -7.7
11 | COc1ncccc1C(=O)NCC(C)Oc1cccnc1 (stereo not given) | -10.8
12 | CC(C)n1c(=O)c2ccccc2n(CCN2CCCCC2)c1=O | -12.6
13 | CCC(C)(C)NC(=O)Cn1nnc(CN(C)C(=O)c2ccccc2)n1 | -3.46
14 | CCS(=O)(=O)N1CCC2(CC1)CN(C(=O)N(C)C)Cc1ccccc12 | -2.71
15 | COc1ncccc1C(=O)NCC1Cc2ccccc2O1 (stereo not given) | -6.43
16 | Cc1sc(NC(=O)CCC(=O)O)c(C(N)=O)c1-c1ccc(Cl)cc1Cl | -1.16
17 | CC(C)(C)NC(=O)CN1CCNCC1 | 6.83
18 | CCS(=O)(=O)Cc1ccn(-c2cccc(F)c2)n1 | -3.75
19 | Cc1cnc(N2CCC3(CC2)CCN(c2cncnc2)C3=O)nc1 | 8.5
20 | Cc1cncc(C(=O)N2CCNCC2C(=O)Nc2ccc(C)nc2)c1 (stereo not given) | -3.64
21 | Oc1cc(CN2CCC(O)(Cn3ccnc3)CC2)nc2ccc(F)cc12 | -7.61
22 | CNc1ncc(CN2CCCC2c2[nH]ncc2C(=O)N(C)C)cn1 (stereo not given) | -3.21
23 | Cc1ccc2c(n1)N(C)CCN(CCN1CCCC1)C2 | 4.19

Row | SMILES | cytotoxicity at 70.5 h [%]
24 | c1ccc(CO[C@@H]2CN(Cc3ccoc3)[C@@H]3COC[C@@H]32)nc1 | 13
25 | CNc1ccc(CC2CCCN(C(=O)c3scnc3C)C2)nn1 (stereo not given) | -5.63
26 | NC(=O)CS(=O)(=O)Cc1ccc(F)cc1 | -1.66
27 | Cc1ccc(N2CCCC(NCc3nnc(-c4ccco4)o3)C2)nn1 (stereo not given) | -13.2
28 | Cc1cccc(CN2CCc3ncnc(NC4CCC4)c3CC2)n1 | 5.7
29 | CC(C)c1ncc(CN2CCC(c3n[nH]cc3C(=O)N(C)C)C2)cn1 (stereo not given) | -2.3
30 | O=C(Cn1nnc(-c2cc3ccccc3o2)n1)N1CCOCC1 | -18.1
31 | CC(O)CN1CCN(C(=O)c2cccc(CC#N)c2)CC1 (stereo not given) | 12.7
32 | CCN1CCC(CNC(=O)c2cc(Cl)c[nH]2)CC1 | -8.09
33 | CCOC(=O)N1[C@@H](c2ccco2)[C@@H](C(=O)O)C[C@]12CCCCNC2=O | -7.52
34 | Cc1nc(C2CCCN2Cc2ncc(C(C)C)o2)no1 (stereo not given) | 42.3
35 | Cc1ncsc1CN1CCC2(CC1)CC(=O)N(Cc1ccc(Cl)cc1)C2 | -3.74
36 | CC(=O)N(C)Cc1ccccc1NC(=O)c1cnn(C)c1C | -0.121
37 | Cc1ccsc1C(Cc1ccccc1)NC(=O)CSCC(N)=O (stereo not given) | -4.76
38 | COC(=O)CCC(=O)NC1CCCc2cc(OC(F)F)ccc21 (stereo not given) | -13
39 | Cc1cc(NCc2cc3n(n2)CCCN(C(=O)N(C)C)C3)ncn1 | -12.5
40 | Cc1nn(C)c(C)c1CCC(=O)N1CCN(CCn2cncn2)CC1 | 14.9
41 | CCc1nc(CN2CCCN(C(=O)CCSC)CC2)cs1 | -15.8
42 | COc1ccc2c(c1)CN(CC1CC1)C(=O)CCN2CC(C)(C)O | 0.185
43 | NC(=O)C1CCN(C(=O)NCc2ccccc2Cn2ccnc2)CC1 | -6.43
44 | COc1ccc(F)cc1C(=O)N1CCCC(n2nc(C)nc2C)C1 (stereo not given) | -9.24
45 | CNC(=O)[C@@H]1[C@@H](c2ccccc2)CN2CCN(Cc3cc(C)no3)C[C@H]12 | -4.59
46 | Cc1nnc(CN(C)CC(=O)N2CCCC(C)CC2)n1C (stereo not given) | -8.63

Row | SMILES | cytotoxicity at 70.5 h [%]
47 | O=C(NCCc1nnc2n1CCC2)NCC1(c2cccc(F)c2)CC1 | -29.8
48 | Cc1ccsc1[C@@H]1CCN(C(=O)Cc2ccc(O)cc2)C[C@H]1O | -2.32
49 | O=C(NCc1ccccn1)N1CC=C(c2ccccc2)CC1 | -16.2
50 | Cc1cc(C)n(C2CCCN(C(=O)CCOc3cccc(F)c3)C2)n1 (stereo not given) | -2.12
51 | CCCc1n[nH]c(C2CN(C(=O)c3n[nH]c4ccccc34)CCO2)n1 (stereo not given) | -6.7
52 | COC(=O)c1ccc(CNC(C)(C)c2ccccc2OC)o1 | -6.94
53 | Cc1ccc(N2CCCC(N(C)Cc3cc(C)on3)C2)nn1 (stereo not given) | -5.56
54 | CC(c1ccc(F)cc1)n1ccnc1-c1cc2n(n1)CCCNC2 (stereo not given) | -6.66
55 | CN(C)C(CNC(=O)c1nc(N2CCCC2)ncc1Cl)c1ccco1 (stereo not given) | -17.5
56 | Cn1cc(Br)c(C(=O)NCCCn2cc(Cl)cn2)n1 | 0.918
57 | CC(C)CN(Cc1nc2c(cnn2C)c(=O)[nH]1)CC(C)C | -5.64
58 | O=C1N(Cc2cccc(F)c2)CCC12CCCN(c1ncc(F)cn1)C2 (stereo not given) | -5.64
59 | CCn1c(C)cc(C(=O)NCc2ccc(CS(C)(=O)=O)cc2)c1C | -7.81
60 | CN(Cc1cccc(F)c1)C(=O)c1ccncc1Cl | -18.9
61 | Cc1ccc(CN(C)C(=O)c2scnc2C)cc1 | -3.98
62 | CCn1c(N)nc2cc(C(=O)NCCc3ccncc3)cnc21 | -13.4
63 | Cc1cc(N2CCCC(O)(CN(C)C)C2)c2cc3c(cc2n1)OCO3 (stereo not given) | 0.76
64 | COc1ccc(-c2cc(N)on2)cc1 | 13.8
65 | CN(Cc1noc(-c2ccccc2)n1)C(=O)CSc1nnc(N)s1 | 14.3
66 | CCc1cnc(N)nc1NCCc1ccc(OC)cc1OC | -0.653
67 | OC(CNC1CCSCC1)c1cccc(OCc2ccccc2)c1 (stereo not given) | 23.4
68 | O=C(Cc1ccsc1)N1CCC(O)(CN2CCc3ccccc3C2)C1 (stereo not given) | -5.49
69 | N#CCCn1cnc2c(F)cc(Br)cc2c1=O | -3.98

Row | SMILES | cytotoxicity at 70.5 h [%]
70 | CCc1nc(CN2CCCN(C(=O)c3ccco3)CC2)cs1 | 16.2
71 | Cn1cc(N2CC3(CCN(CC4CCC4)CC3)OCC2=O)cn1 | -7.64
72 | c1cnc(N2CCCC3(CCN(CC4CCC4)C3)C2)nc1 (stereo not given) | -8.21
73 | O=C1NCCN(Cc2ccoc2)C1CC(=O)N1CCc2sccc2C1 (stereo not given) | -0.766
74 | COc1ccccc1OC1(C(=O)O)CCN(c2ncccc2F)CC1 | -7.34
75 | O=C(CCN1CCOC1=O)Nc1cnn(-c2ccccc2Cl)c1 | -7.73
76 | c1cncc(OC[C@]23COC[C@H]2CN(C2CCC2)C3)c1 | -1.17
77 | CC(C)S(=O)(=O)CCN1CCN(C(C#N)c2ccccc2)CC1 (stereo not given) | -7.44
78 | CCn1c(N)nc2cc(C(=O)N3CC(c4ccccn4)C3)cnc21 | -5.92
79 | Cc1ncccc1O[C@H]1CCN(C(=O)Cc2cccs2)CC[C@@H]1O | -7.99
80 | O=C1CCCCCN1CCC(=O)N1CCCC(c2ccn[nH]2)C1 (stereo not given) | -9.01
81 | CN(C)C(C(=O)N1CC(c2ccccn2)C1)c1cccc(F)c1 (stereo not given) | -2.09
82 | CC(C)c1noc(CN(Cc2ccccc2)C2CC2)n1 | 0.0143
83 | O=S(=O)(c1cccs1)N1Cc2nc(CN3CCCC3)oc2C1 | -6.48
84 | O=C(c1cc(-c2cccs2)cs1)N1CCOCC1 | -8.23
85 | CN(C(=O)C1CCCCC1)[C@@H]1CCC[C@@H](N2CCOCC2)[C@@H]1O | -11.9
86 | COCc1noc(-c2ccc(N3CCCC3c3nccs3)nc2)n1 (stereo not given) | 12
87 | COCCCNC(=O)CN1CCSC(c2ccccc2)C1 (stereo not given) | 3.9
88 | COCCN1CC(O)CN(C(=O)c2ccc(SC)cc2)CC1=O (stereo not given) | -4.29
89 | Cc1cc(C)nc(Nc2cc(C)nc(C3CCN(C(=O)CO)C3)n2)n1 (stereo not given) | -7.3
90 | CSc1ccc(-c2nc(CN3C[C@@H](C)NC[C@@H]3C)c(C)o2)cc1 | -4.1
91 | Cc1noc(C(C)C)c1C(=O)NS(=O)(=O)c1cccnc1 | 17.5
92 | CN1CCN(C(C)(C)CNC(=O)C2CCCN2S(C)(=O)=O)CC1 (stereo not given) | -6.25

Row | SMILES | cytotoxicity at 70.5 h [%]
93 | Cn1nc(CNC(=O)C2CC2)cc1C1CC1 | 8.22
94 | CCCc1cc(=O)[nH]c(-c2cccc(CN3CCN4CCCC4C3)c2)n1 (stereo not given) | -6.97
95 | CCOc1ccc(CN2CC[C@](C)(O)C(C)(C)C2)cn1 | -1.38
96 | CCC1CN(c2cnn(-c3ccccc3)c(=O)c2Cl)CCO1 (stereo not given) | -12.4
97 | O=C(c1cncc(NCC2COc3ccccc3C2)n1)N1CCCCC1 (stereo not given) | 0.974
98 | COCCC(=O)N1CCCC2(CCC(=O)N(CCc3c[nH]cn3)C2)C1 (stereo not given) | -5.35
99 | CN(C)C(=O)CN1C(=O)CCC12CCN(Cc1ccsc1)CC2 | -15.7
100 | O=C1CCCN1c1cccc(N2CCC(NCCc3cscn3)CC2)c1 | -4.03
101 | Cc1occc1C(=O)N1CCCC2(CCN(CCN3CCCC3)C2=O)C1 (stereo not given) | -11.9
102 | COCc1ccc(C(=O)N2CCC(Oc3ccccc3)(C(=O)O)CC2)o1 | 17.3
103 | CCOCc1nc2c(c(NC(CC)c3ccnn3C)n1)CCNCC2 (stereo not given) | 0.295
104 | O=C(NCC(F)(F)F)C(c1cccnc1)N1CCCC1 (stereo not given) | -5.02
105 | CC(=O)NCC(=O)N1CCc2nc(C)nc(C)c2CC1 | 5.59
106 | NC(=O)Cc1csc(NC(=O)C2CSCCC(=O)N2)n1 (stereo not given) | 1.67
107 | O=C(O)CCn1ccc(=O)c2cc(F)ccc21 | -11.9
108 | COc1cccc2c(=O)n(Cc3ccnc(C)c3)cnc12 | -26.7
109 | OC1(CN2CCCCC2)CCN(c2nccc(C(F)(F)F)n2)C1 (stereo not given) | 18.4
110 | CN1CCCN(C[C@H]2C[C@H](CO)CN(Cc3cccnc3N)C2)CC1 | 22.4
111 | CC(C)(C)c1nc(CC(=O)NCCC(=O)Nc2ccncc2)cs1 | 5.09
112 | CN(C)c1ccc(CC(=O)N2C[C@H](C3CC3)[C@@H](N)C2)cc1 | 0.366
113 | COC[C@H]1CCC[C@H]1Nc1ncnc2c1CCNCC2 | -3.38
114 | O=C(NCC1Cn2nnc(-c3ccsc3)c2CO1)N1CCCC1 (stereo not given) | -7.85
115 | Cc1cc(C2CCCCN2C(=O)CN2CC3(CCNCC3)OC2=O)no1 (stereo not given) | -6.52
